From US20110281869A1, “TETRAHYDROISOQUINOLINES AS ANTIMALARIAL AGENTS” (priority 2008, published 2011)

Tested on: P. falciparum K1
Experiment: Plasmodium falciparum in vitro assay ([3H] hypoxanthine incorporation)
Type: cell-based
Conditions: Plasmodium falciparum, K1, read-out: IC50 (nM) on K1
Procedure: In vitro antimalarial activity: Plasmodium falciparum in vitro assay In vitro activity against erythrocytic stages of P. falciparum is determined using a [^3H] hypoxanthine incorporation assay. One strain resistant to chloroquine and pyrimethamine (P. falciparum K1) is used in the assays, and all test compounds are compared for activity with the standard drugs chloroquine (sigma C6628) and artemisinin (sigma-36, 159-3). Compounds are diluted in DMSO to 1 mM and added to parasite cultures incubated in RPMI 1640 medium without hypoxanthine, supplemented with HEPES (5.94 g/L), NaHCO3 (2.1 g/L), neomycin (100 U/mL), Albumax (5 g/L) and washed human red cells at 2.5% hematocrit (0.3% parasitaemia). Seven serial doubling dilutions of each drug are prepared in 96-well microtitre plates and incubated in a humidifying atmosphere at 37° C.; 4% CO2, 3% O2, 93% N2.
After 48 h, 50 μl of [^3H] hypoxanthine (0.5 μCi) is added to each well of a plate. The plates are incubated for a further 24 h under the same conditions. The plates are then harvested with a Betaplate cell harvester (Wallac) and washed with distilled water. The dried filters are inserted into a plastic foil with 10 mL of scintillation fluid, and counted in a Betaplate liquid scintillation counter. IC50 values are calculated from sigmoidal inhibition curves using Microsoft Excel.

Compound	IC50 [nM]
CCN(CC)CCCC(C)Nc1ccnc2cc(Cl)ccc12 (centres unmarked) [Chloroquine, chloroquine, reference compound]	300

Same assay, conditions: Plasmodium falciparum; erythrocytic stages, strain K1 resistant to chloroquine and pyrimethamine, human red cells; read-out: IC50 (nM) on K1

Compound	IC50 [nM]
COc1ccc(C=CC(=O)N(Cc2ccc(-c3ncccn3)cc2)[C@@H](Cc2ccccc2)C(=O)N2CCc3ccccc3C2)cn1 [Example 93, (S)—N-[1-Benzyl-2-(3,4-dihydro-1H-isoquinolin-2-yl)-2-oxo-ethyl]-3-(6-methoxy-pyridin-3-yl)-N-(4-pyrimidin-2-yl-benzyl)-acrylamide]	19
O=C([C@H](Cc1ccccc1)N(Cc1ccc(-c2ccccn2)cc1)C(=O)C=Cc1ccc(C(F)(F)F)cc1)N1CCc2cc(F)ccc2C1 [Example 10, (S)—N-[1-Benzyl-2-(6-fluoro-3,4-dihydro-1H-isoquinolin-2-yl)-2-oxo-ethyl]-N-(4-pyridin-2-yl-benzyl)-3-(4-trifluoromethyl-phenyl)-acrylamide]	14
Cn1nccc1CC(C(=O)N1CCc2ccccc2C1)N(Cc1ccc(-c2ccncc2)cc1)C(=O)C=Cc1ccc(C(F)(F)F)cc1 (racemic) [Example 84, rac-N-[2-(3,4-Dihydro-1H-isoquinolin-2-yl)-1-(2-methyl-2H-pyrazol-3-ylmethyl)-2-oxo-ethyl]-N-(4-pyridin-4-yl-benzyl)-3-(4-trifluoromethyl-phenyl)-acrylamide]	84
COc1ccc(C=CC(=O)N(Cc2ccc(-c3ccccn3)cc2)[C@@H](Cc2ccccc2)C(=O)N2CCc3ccccc3C2)cn1 [Example 62, (S)—N-[1-Benzyl-2-(3,4-dihydro-1H-isoquinolin-2-yl)-2-oxo-ethyl]-3-(6-methoxy-pyridin-3-yl)-N-(4-pyridin-2-yl-benzyl)-acrylamide]	10
O=C(C(Cc1ncccn1)N(Cc1ccc(-c2ccncc2)cc1)C(=O)C=Cc1ccc(C(F)(F)F)cc1)N1CCc2ccccc2C1 (racemic) [Example 86, rac-N-[2-(3,4-Dihydro-1H-isoquinolin-2-yl)-2-oxo-1-pyrimidin-2-ylmethyl-ethyl]-N-(4-pyridin-4-yl-benzyl)-3-(4-trifluoromethyl-phenyl)-acrylamide]	162
O=C([C@H](Cc1ccccc1)N(Cc1ccccn1)C(=O)C=Cc1ccc(C(F)(F)F)cc1)N1CCc2ccccc2C1 [Example 6, (S)—N-[1-Benzyl-2-(3,4-dihydro-1H-isoquinolin-2-yl)-2-oxo-ethyl]-N-pyridin-2-ylmethyl-3-(4-trifluoromethyl-phenyl)-acrylamide]	25
O=C([C@H](Cc1ccccc1)N(Cc1ccc(-c2ccccn2)cc1)C(=O)C=Cc1ccc(C(F)(F)F)cc1)N1CCc2c(F)cccc2C1 [Example 74, (S)—N-[1-Benzyl-2-(5-fluoro-3,4-dihydro-1H-isoquinolin-2-yl)-2-oxo-ethyl]-N-(4-pyridin-2-yl-benzyl)-3-(4-trifluoromethyl-phenyl)-acrylamide]	11
Cn1ccc(CC(C(=O)N2CCc3ccccc3C2)N(Cc2ccc(-c3ccncc3)cc2)C(=O)C=Cc2ccc(C(F)(F)F)cc2)n1 (racemic) [Example 82, rac-N-[2-(3,4-Dihydro-1H-isoquinolin-2-yl)-1-(1-methyl-1H-pyrazol-3-ylmethyl)-2-oxo-ethyl]-N-(4-pyridin-4-yl-benzyl)-3-(4-trifluoromethyl-phenyl)-acrylamide]	24
Cc1nc(C)c(C=CC(=O)N(Cc2ccc(-c3ccccn3)cc2)[C@@H](Cc2ccccc2)C(=O)N2CCc3ccccc3C2)s1 [Example 51, (S)—N-[1-Benzyl-2-(3,4-dihydro-1H-isoquinolin-2-yl)-2-oxo-ethyl]-3-(2,4-dimethyl-thiazol-5-yl)-N-(4-pyridin-2-yl-benzyl)-acrylamide]	17
Cn1cc(C=CC(=O)N(Cc2ccc(-c3cnccn3)cc2)[C@@H](Cc2ccccc2)C(=O)N2CCc3ccccc3C2)cn1 [Example 116, (S)—N-[1-Benzyl-2-(3,4-dihydro-1H-isoquinolin-2-yl)-2-oxo-ethyl]-3-(1-methyl-1H-pyrazol-4-yl)-N-(4-pyrazin-2-yl-benzyl)-acrylamide]	67

Continued, values first:

IC50 [nM]	Compound
82	CN1CCN(c2ccc(CN(C(=O)C=Cc3ccc(C(F)(F)F)cn3)[C@@H](Cc3ccccc3)C(=O)N3CCc4ccccc4C3)cc2)CC1 [Example 211, (S)—N-[1-Benzyl-2-(3,4-dihydro-1H-isoquinolin-2-yl)-2-oxo-ethyl]-N-[4-(4-methyl-piperazin-1-yl)-benzyl]-3-(5-trifluoromethyl-pyridin-2-yl)-acrylamide]
18	Cc1noc(C)c1C=CC(=O)N(Cc1ccc(N2CCOCC2)cc1)[C@@H](Cc1ccccc1)C(=O)N1CCc2ccccc2C1 [Example 224, (S)—N-[1-Benzyl-2-(3,4-dihydro-1H-isoquinolin-2-yl)-2-oxo-ethyl]-3-(3,5-dimethyl-isoxazol-4-yl)-N-(4-morpholin-4-yl-benzyl)-acrylamide]
70	Cc1nc(C=CC(=O)N(Cc2ccc(-c3cncnc3)cc2)[C@@H](Cc2ccccc2)C(=O)N2CCc3ccccc3C2)c(C)o1 [Example 253, (S)—N-[1-Benzyl-2-(3,4-dihydro-1H-isoquinolin-2-yl)-2-oxo-ethyl]-3-(2,5-dimethyl-oxazol-4-yl)-N-(4-pyrimidin-5-yl-benzyl)-acrylamide]
5	Cc1nn(C)c(C)c1C=CC(=O)N(Cc1ccc(-c2cnccn2)cc1)[C@@H](Cc1ccccc1)C(=O)N1CCc2ccccc2C1 [Example 119, (S)—N-[1-Benzyl-2-(3,4-dihydro-1H-isoquinolin-2-yl)-2-oxo-ethyl]-N-(4-pyrazin-2-yl-benzyl)-3-(1,3,5-trimethyl-1H-pyrazol-4-yl)-acrylamide]
31	Cc1ccc(C=CC(=O)N(Cc2ccc(N3CCOCC3)cc2)[C@@H](Cc2ccccc2)C(=O)N2CCc3ccccc3C2)cn1 [Example 218, (S)—N-[1-Benzyl-2-(3,4-dihydro-1H-isoquinolin-2-yl)-2-oxo-ethyl]-3-(6-methyl-pyridin-3-yl)-N-(4-morpholin-4-yl-benzyl)-acrylamide]
26	Cc1noc(C)c1C=CC(=O)N(Cc1ccc(-c2cncnc2)cc1)[C@@H](Cc1ccccc1)C(=O)N1CCc2ccccc2C1 [Example 235, (S)—N-[1-Benzyl-2-(3,4-dihydro-1H-isoquinolin-2-yl)-2-oxo-ethyl]-3-(3,5-dimethyl-isoxazol-4-yl)-N-(4-pyrimidin-5-yl-benzyl)-acrylamide]
42	Cc1nc(C)c(C=CC(=O)N(Cc2ccc(N3CCOCC3)cc2)[C@@H](Cc2ccccc2)C(=O)N2CCc3ccccc3C2)s1 [Example 251, (S)—N-[1-Benzyl-2-(3,4-dihydro-1H-isoquinolin-2-yl)-2-oxo-ethyl]-3-(2,4-dimethyl-thiazol-5-yl)-N-(4-morpholin-4-yl-benzyl)-acrylamide]
8	O=C([C@H](Cc1ccccc1)N(Cc1ccc(-n2cncn2)cc1)C(=O)C=Cc1ccc(Cl)nc1)N1CCc2ccccc2C1 [Example 167, (S)—N-[1-Benzyl-2-(3,4-dihydro-1H-isoquinolin-2-yl)-2-oxo-ethyl]-3-(6-chloro-pyridin-3-yl)-N-(4-[1,2,4]-triazol-1-yl-benzyl)-acrylamide]

Same assay, conditions: erythrocytic stages, strain K1 resistant to chloroquine and pyrimethamine, human red cells; read-out: IC50 (nM) on K1

Compound	IC50 [nM]
O=C([C@H](Cc1ccccc1)N(Cc1ccc(-c2ccccn2)cc1)C(=O)C=Cc1cccc(Cl)c1Cl)N1CCc2ccccc2C1 [Example 25, (S)—N-[1-Benzyl-2-(3,4-dihydro-1-H-isoquinolin-2-yl)-2-oxo-ethyl]-3-(2,3-dichloro-phenyl)-N-(4-pyridin-2-yl-benzyl)-acrylamide]	13
